Experimental data as given in patent US20250215030A1, “STAT MODULATORS AND USES THEREOF” (Recludix Pharma, Inc., priority 2022, published 2025).

Assays:
[1] = biological target: T1, Recombinant STAT6 protein (STAT6(W123-T658)) (Homo sapiens, UniProt P42226); experiment: STAT6 Fluorescence Polarization (FP) Assay; assay type: binding; conditions: STAT6(W123-T658) 250 nM, probe 5-FAM-ApYKPFQDLI-NH2 2 nM, 45-minute incubation
T1 construct: STAT6(W123-T658)
T1 sequence (P42226 123-658): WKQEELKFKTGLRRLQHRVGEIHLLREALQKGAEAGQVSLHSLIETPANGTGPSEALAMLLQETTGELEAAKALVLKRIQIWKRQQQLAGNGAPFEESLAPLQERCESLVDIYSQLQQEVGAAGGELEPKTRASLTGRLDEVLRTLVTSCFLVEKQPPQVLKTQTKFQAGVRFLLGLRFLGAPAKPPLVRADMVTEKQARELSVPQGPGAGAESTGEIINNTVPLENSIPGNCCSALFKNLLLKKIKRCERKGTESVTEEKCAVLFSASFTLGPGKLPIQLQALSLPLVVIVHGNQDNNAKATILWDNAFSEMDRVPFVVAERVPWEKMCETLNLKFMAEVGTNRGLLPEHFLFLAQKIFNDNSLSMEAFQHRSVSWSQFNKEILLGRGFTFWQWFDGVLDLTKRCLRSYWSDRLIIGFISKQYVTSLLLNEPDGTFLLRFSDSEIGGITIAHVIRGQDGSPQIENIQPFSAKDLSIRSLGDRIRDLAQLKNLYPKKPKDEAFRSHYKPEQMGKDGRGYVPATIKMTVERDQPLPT
Outline: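 Competitive displacement of a fluorescent phosphotyrosine peptide (2 nM) from recombinant STAT6 W123-T658 (250 nM), 45 min at room temperature in 10 mM HEPES pH 7.4, 50 mM NaCl, 2 mM DTT. mP fitted against log compound for IC50, grouped A (≤300 nM) to D (>30 μM).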

[2] = biological target: T2, Recombinant STAT3 protein (STAT3(G127-I722)) (Homo sapiens, UniProt P40763); experiment: STAT3 Fluorescence Polarization (FP) Assay; assay type: binding; conditions: STAT3(G127-I722) 25 nM, probe 5-FAM-GpYLPQTV-NH2 2 nM, 45-minute incubation
T2 construct: STAT3(G127-I722)
Outline: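 Serially diluted compounds (1% DMSO) were mixed with 2 nM fluorescent phosphotyrosine peptide and 25 nM STAT3 construct G127-I722, pH 7.4, incubated 45 min at room temperature. IC50 values from fitted polarization curves are reported as categories A (≤100 nM), B, C, D (>10 μM).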

T2 sequence (P40763 127-722, species assumed): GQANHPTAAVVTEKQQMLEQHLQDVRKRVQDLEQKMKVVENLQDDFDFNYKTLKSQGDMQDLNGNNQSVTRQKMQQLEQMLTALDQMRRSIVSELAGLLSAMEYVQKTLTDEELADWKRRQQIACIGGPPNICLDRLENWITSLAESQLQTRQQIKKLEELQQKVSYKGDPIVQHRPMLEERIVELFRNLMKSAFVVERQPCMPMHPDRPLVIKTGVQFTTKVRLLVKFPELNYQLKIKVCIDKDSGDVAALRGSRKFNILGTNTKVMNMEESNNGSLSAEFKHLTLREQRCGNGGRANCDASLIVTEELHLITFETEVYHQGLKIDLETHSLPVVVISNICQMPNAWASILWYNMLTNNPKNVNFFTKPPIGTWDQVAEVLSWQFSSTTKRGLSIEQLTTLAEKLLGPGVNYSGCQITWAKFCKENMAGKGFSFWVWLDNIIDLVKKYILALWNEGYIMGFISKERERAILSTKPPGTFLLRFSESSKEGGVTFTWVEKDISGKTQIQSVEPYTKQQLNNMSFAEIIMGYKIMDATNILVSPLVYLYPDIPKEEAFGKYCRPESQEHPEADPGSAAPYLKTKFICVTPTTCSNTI

SMILES | IC50 [1] | IC50 [2]
O=C(N[C@H]1C[C@@H]2C[C@@H]2C[C@H]2CC[C@@H](C(=O)N3CC(C(=O)N4CC(c5ccccn5)C4)C3)N2C1=O)c1cc2cc(C(F)(F)P(=O)(O)O)ccc2s1 [Compound 86, (difluoro(2-(((3S,6S,7aS,8aR,9aR)-5-oxo-3-(3-(3-(pyridin-2-yl)azetidine-1-carbonyl)azetidine-1-carbonyl)decahydro-1H-cyclopropa[d]pyrrolo[1,2-a]azocin-6-yl)carbamoyl)benzo[b]thiophen-5-yl)methyl)phosphonic acid] | 3 to 30 µM | < 0.1 µM
O=C(N[C@H]1C[C@@H]2C[C@@H]2C[C@H]2CC[C@@H](C(=O)N3CC(O)(c4ccccn4)C3)N2C1=O)c1cc2cc(C(F)(F)P(=O)(O)O)ccc2s1 [Compound 87, (difluoro(2-(((3S,6S,7aS,8aR,9aR)-3-(3-hydroxy-3-(pyridin-2-yl)azetidine-1-carbonyl)-5-oxodecahydro-1H-cyclopropa[d]pyrrolo[1,2-a]azocin-6-yl)carbamoyl)benzo[b]thiophen-5-yl)methyl)phosphonic acid] | 3 to 30 µM | < 0.1 µM
COc1ccc(C2CCN(C(=O)[C@@H]3CC[C@@H]4C[C@H]5C[C@H]5C[C@H](NC(=O)c5cc6cc(C(F)(F)P(=O)(O)O)ccc6s5)C(=O)N43)C2)cn1 (stereo partly drawn) [Compound 88, (difluoro(2-(((3S,6S,7aS,8aR,9aR)-3-(3-(6-methoxypyridin-3-yl)pyrrolidine-1-carbonyl)-5-oxodecahydro-1H-cyclopropa[d]pyrrolo[1,2-a]azocin-6-yl)carbamoyl)benzo[b]thiophen-5-yl)methyl)phosphonic acid] | 0.3 to 3 µM | < 0.1 µM
N#CC1(c2ccccn2)CN(C(=O)[C@@H]2CC[C@@H]3C[C@H]4C[C@H]4C[C@H](NC(=O)c4cc5cc(C(F)(F)P(=O)(O)O)ccc5s4)C(=O)N32)C1 [Compound 89, ((2-(((3S,6S,7aS,8aR,9aR)-3-(3-cyano-3-(pyridin-2-yl)azetidine-1-carbonyl)-5-oxodecahydro-1H-cyclopropa[d]pyrrolo[1,2-a]azocin-6-yl)carbamoyl)benzo[b]thiophen-5-yl)difluoromethyl)phosphonic acid] | 0.3 to 3 µM | < 0.1 µM
O=C(N[C@H]1C[C@@H]2C[C@@H]2C[C@H]2CC[C@@H](C(=O)N3CC4(CC(=O)c5nccn54)C3)N2C1=O)c1cc2cc(C(F)(F)P(=O)(O)O)ccc2s1 [Compound 90, (difluoro(2-(((3S,6S,7aS,8aR,9aR)-5-oxo-3-(7′-oxo-6′,7′-dihydrospiro[azetidine-3,5′-pyrrolo[1,2-a]imidazole]-1-carbonyl)decahydro-1H-cyclopropa[d]pyrrolo[1,2-a]azocin-6-yl)carbamoyl)benzo[b]thiophen-5-yl)methyl)phosphonic acid] | 0.3 to 3 µM | < 0.1 µM
O=C(N[C@H]1C[C@@H]2C[C@@H]2C[C@H]2CC[C@@H](C(=O)N3CC(N4CCOCC4)C3)N2C1=O)c1cc2cc(C(F)(F)P(=O)(O)O)ccc2s1 [Compound 91, (difluoro(2-(((3S,6S,7aS,8aR,9aR)-3-(3-morpholinoazetidine-1-carbonyl)-5-oxodecahydro-1H-cyclopropa[d]pyrrolo[1,2-a]azocin-6-yl)carbamoyl)benzo[b]thiophen-5-yl)methyl)phosphonic acid] | 3 to 30 µM | 0.1 to 1 µM
CC(=O)N1CCC2(C1)CN(C(=O)[C@@H]1CC[C@@H]3C[C@H]4C[C@H]4C[C@H](NC(=O)c4cc5cc(C(F)(F)P(=O)(O)O)ccc5s4)C(=O)N31)C2 [Compound 92, ((2-(((35,6S,7aS,8aR,9aR)-3-(6-acetyl-2,6-diazaspiro[3.4]octane-2-carbonyl)-5-oxodecahydro-1H-cyclopropa[d]pyrrolo[1,2-a]azocin-6-yl)carbamoyl)benzo[b]thiophen-5-yl)difluoromethyl)phosphonic acid] | 3 to 30 µM | 0.1 to 1 µM
CC1(C(=O)N2CCOCC2)CN(C(=O)[C@@H]2CC[C@@H]3C[C@H]4C[C@H]4C[C@H](NC(=O)c4cc5cc(C(F)(F)P(=O)(O)O)ccc5s4)C(=O)N32)C1 [Compound 93, (difluoro(2-(((3S,6S,7aS,8aR,9aR)-3-(3-methyl-3-(morpholine-4-carbonyl)azetidine-1-carbonyl)-5-oxodecahydro-1H-cyclopropa[d]pyrrolo[1,2-a]azocin-6-yl)carbamoyl)benzo[b]thiophen-5-yl)methyl)phosphonic acid] | 3 to 30 µM | 0.1 to 1 µM
O=C(N[C@H]1C[C@@H]2C[C@@H]2C[C@H]2CC[C@@H](C(=O)N3CC(n4ccnc4)C3)N2C1=O)c1cc2cc(C(F)(F)P(=O)(O)O)ccc2s1 [Compound 94] | 3 to 30 µM | < 0.1 µM
O=C(N[C@H]1C[C@@H]2C[C@@H]2C[C@H]2CC[C@@H](C(=O)N3CC(F)(C(=O)N4CCOCC4)C3)N2C1=O)c1cc2cc(C(F)(F)P(=O)(O)O)ccc2s1 [Compound 95, (difluoro(2-(((3S,6S,7aS,8aR,9aR)-3-(3-fluoro-3-(morpholine-4-carbonyl)azetidine-1-carbonyl)-5-oxodecahydro-1H-cyclopropa[d]pyrrolo[1,2-a]azocin-6-yl)carbamoyl)benzo[b]thiophen-5-yl)methyl)phosphonic acid] | 3 to 30 µM | 0.1 to 1 µM
O=C(N[C@H]1C[C@@H]2C[C@@H]2C[C@H]2CC[C@@H](C(=O)N3CC(C4CCOCC4)C3)N2C1=O)c1cc2cc(C(F)(F)P(=O)(O)O)ccc2s1 [Compound 96, (difluoro(2-(((3S,6S,7aS,8aR,9aR)-5-ox0-3-(3-(tetrahydro-2H-pyran-4-yl)azetidine-1-carbonyl)decahydro-1H-cyclopropa[d]pyrrolo[1,2-a]azocin-6-yl)carbamoyl)benzo[b]thiophen-5-yl)methyl)phosphonic acid] | 3 to 30 µM | 0.1 to 1 µM
O=C(N[C@H]1C[C@@H]2C[C@@H]2C[C@H]2CC[C@@H](C(=O)N3CC(c4ccccn4)C3)N2C1=O)c1cc2cc(C(F)(F)P(=O)(O)O)ccc2s1 [Compound 97, (difluoro(2-(((3S,6S,7aS,8aR,9aR)-5-ox0-3-(3-(pyridin-2-yl)azetidine-1-carbonyl)decahydro-1H-cyclopropa[d]pyrrolo[1,2-a]azocin-6-yl)carbamoyl)benzo[b]thiophen-5-yl)methyl)phosphonic acid] | 3 to 30 µM | < 0.1 µM
O=C(N[C@H]1C[C@@H]2C[C@@H]2C[C@H]2CC[C@@H](C(=O)N3CC(c4cccnc4)C3)N2C1=O)c1cc2cc(C(F)(F)P(=O)(O)O)ccc2s1 [Compound 100, (difluoro(2-(((3S,6S,7aS,8aR,9aR)-5-ox0-3-(3-(pyridin-3-yl)azetidine-1-carbonyl)decahydro-1H-cyclopropa[d]pyrrolo[1,2-a]azocin-6-yl)carbamoyl)benzo[b]thiophen-5-yl)methyl)phosphonic acid] | 3 to 30 µM | < 0.1 µM
CC(C(N)=O)c1cc(-c2ccccc2)ccc1NC(=O)[C@@H]1CC[C@@H]2C[C@H]3C[C@H]3C[C@H](NC(=O)c3cc4cc(C(F)(F)P(=O)(O)O)ccc4s3)C(=O)N21 (stereo partly drawn) [Compound 101] | 0.3 to 3 µM | 0.1 to 1 µM
COC1CN(C(=O)C2CN(C(=O)[C@@H]3CC[C@@H]4C[C@H]5C[C@H]5C[C@H](NC(=O)c5cc6cc(C(F)(F)P(=O)(O)O)ccc6s5)C(=O)N43)C2)C1 [Compound 102, (difluoro(2-(((3S,6S,7aS,8aR,9aR)-3-(3-(3-methoxyazetidine-1-carbonyl)azetidine-1-carbonyl)-5-oxodecahydro-1H-cyclopropa[d]pyrrolo[1,2-a]azocin-6-yl)carbamoyl)benzo[b]thiophen-5-yl)methyl)phosphonic acid] | 3 to 30 µM | < 0.1 µM
